One may read the IC50 as the concentration that gives 50% inhibition.

In ChEMBL document CHEMBL4196190, “Tetrahydrobenzofuran-6(2 H)-one Neolignans from Ocotea heterochroma: Their Platelet Activating Factor (PAF) Antagonistic Activity and in Silico Insights into the PAF Receptor Binding Mode” (J Nat Prod, 2018) one finds IC50 data, which are given here for five compounds.

A short description of this test: Antagonist activity at rabbit PAF receptor assessed as inhibition of PAF-induced platelet aggregation incubated for 5 mins followed by PAF addition. The note with it: Oryctolagus cuniculus.
Consider `C=CCC1=C[C@]2(OC)[C@H](C)[C@@H](c3cc(OC)c4c(c3)OCO4)[C@](OC)(C1=O)[C@H]2O` [CINERIN C], for which the concentration for half-maximal inhibition (IC50) was 1.09 µM.

As for `C=CC[C@H]1C[C@]2(OC)C(=C(OC)C1=O)O[C@@H](c1cc(OC)c(OC)c(OC)c1)[C@@H]2C`, the IC50 amounted to 0.23 µM.

Regarding `C[C@@H]1C(=O)O[C@H]2[C@H](O)[C@@]34[C@H]5C[C@@H](C(C)(C)C)[C@]36[C@@H](OC(=O)[C@@H]6O)O[C@@]4(C(=O)O5)[C@@]12O` [GINKOLIDE B], the IC50 worked out at 0.93 µM.

On to `C=CCC1=C[C@@]2(OC)C(=CC1=O)O[C@H](c1ccc(OC)c(OC)c1)[C@H]2C` [KADSURENONE], for which the IC50 was found to be 0.15 µM.

As for `C=CC[C@H]1C[C@]2(OC)C(=C(OC)C1=O)O[C@@H](c1cc(OC)c3c(c1)OCO3)[C@@H]2C`, the IC50 was 0.39 µM.
